From US12042655B2, “Systems for detecting catheter movement” (Cardionomic, Inc., priority 2017, dated 2024)

Test system: normal, non-HF ovine model
Test: Change in right and left ventricle contractility after injection, with max(dP/dt) pressure as surrogate and heartbeat-by-heartbeat RV/LV correlation
Assay type: in vivo
Details: max(dP/dt) used as surrogate for contractility
From the text: The correlation was a heartbeat-by-heartbeat analysis. Pressure measurements, taken by a Millar catheter comprising a MEMS pressure sensor, in units of max(dP/dt) was used as a surrogate for contractility. The first change, a dobutamine injection, provided a very high contractility increase greater than 500%. The average correlation between right ventricle contractility and left ventricle contractility was very good at 0.91, where 1.00 is a perfect correlation. Accordingly, if a subject is given a dobutamine injection, measuring changes to right ventricle contractility can provide accurate information about changes to left ventricle contractility. The first change was repeated three times. The second change, calcium injection at 5 mL, provided a contractility increase of about 20%. […] The average correlation between right ventricle contractility and left ventricle contractility using a Millar (MEMS) sensor on a catheter was very good at 0.91. The average correlation between right ventricle contractility and left ventricle contractility using a fluid-filled lumen of a Swan-Ganz catheter in communication with an external pressure sensor was also very good at 0.87. Accordingly, under certain circumstances such as measurement of an animal (normal, non-HF ovine model) model, if a subject is given a calcium injection, measuring changes to right ventricle contractility with a MEMS sensor or a fluid filled lumen can provide accurate information about changes to left ventricle contractility.

Compound	Contractility % Increase	Contractility % Increase (listed as dobutamine injection)	Contractility % Increase (listed as calcium injection)
CC(CCc1ccc(O)cc1)NCCc1ccc(O)c(O)c1 (stereo not shown) [Dobutamine Injection, dobutamine]	>500%	greater than 500%	–
calcium [Calcium Injection]	~20%	–	about 20%
